# According to US11447533B2, “Antimicrobial and anticancer peptides and conjugates and compositions, methods, articles and kits relating thereto” (George Mason Research Foundation, Inc., priority 2018, dated 2022):
# Columns and labels:
# Assay type in all cases: cell-based
# [1] = system: ESKAPE pathogens; experiment: Antimicrobial efficacy against ESKAPE pathogens (all other than P. aeruginosa); details: mammalian serum; susceptible and drug-resistant strains
# Method: FIG. 8 is a graph showing antimicrobial efficacies of ATRA1-R3W2-HYD (blue), NA-CATH (dark orange) and PMB (green) against selected members of ESKAPE (Enterococcus faecium, Staphylococcus aureus, Klebsiella pneumoniae, Acinetobacter baumannii, Pseudomonas aeruginosa, and Enterobacter) pathogens. Both susceptible and drug-resistant strains were used. All the bacteria, except Pseudomonas aeruginosa, were tested under mammalian serum. P. aeruginosa results were obtained from testing in DPBS. The results are presented as mean of tests in triplicate with error-bars depicting the 95% confidence interval of the mean.
# Antimicrobial Studies. The phosphate buffers used for antimicrobial assays were supplemented with non-nitrogenous energy source, 0.1% (w/v) glucose. […]
# (§1) Antimicrobial assays in different phosphate buffers and serum were conducted by adapting, with necessary modifications a fast high-throughput method based on Virtual Colony Count technique and later modified by incorporating the use of resazurin. At first serial dilution of a microbial strain in respective buffer was poured in the wells of 96 well polypropylene microplate and was then added with same volume of 2× MHB II supplemented with 80 μg/mL resazurin and incubated at 35° C. in a Gemini EM Microplate Reader (Molecular Devices) overnight with intermittent shaking. […]
# [2] = system: Klebsiella pneumoniae (ATCC BAA-1705); experiment: Antimicrobial efficacy against ESKAPE pathogens; details: mammalian serum
# Method: (§2) Antimicrobial Studies. The phosphate buffers used for antimicrobial assays were supplemented with non-nitrogenous energy source, 0.1% (w/v) glucose. To conduct antimicrobial assays, bacterial strains were first suspended in respective buffers. E. coli (ATCC 25922) and B. cereus (ATCC 11778) were grown in MHB II up to OD600 nm˜1 and stored as frozen stock in 20% glycerol at −80° C. Occasionally they were thawed and enumerated by serial dilution and spreading on MHB II agar plates. The concentrations of the frozen stocks of E. coli and B. cereus strains were 1.0-1.1*10^8 CFU/mL with OD600 nm˜0.8. In case of other bacterial strains, they were grown on the days of experiment up to OD600 nm˜1-1.5 and then adjusted to OD600 nm˜0.8. The growth media of the drug-resistant bacterial strains were supplemented with few of the respective antibiotics against which they are resistant. 200 μL of the 0.8 OD600 nm culture were added to 10 mL of the respective buffer to obtain a suspension which was used to incubate with equal volumes of peptide solution in the same buffer.
# as §1, with “shaking. As the microbe grows it reduces non-fluorescent resazurin to fluorescent resorufin and the fluorescent intensity of each well were measured (excitation=570 nm, emission=590 nm) each 5 min for 15 hours. The time (t, min) to reach a certain fluorescence (RFU=20000 with respect to the starting fluorescence) was correlated with the initial bacterial concentration (in CFU/mL) in the particular well to obtain a calibration plot of the form: Log([Bacteria],CFU/mL)=b+m*t Equation 4:” for “shaking.”
# (§3) To obtain antimicrobial efficacy of the peptides, 50 μL of serially diluted peptide in a buffer was incubated with 50 μL microbial suspension in the same buffer for 3 hours in black polypropylene 96 well plate. After incubation the wells were added with 100 μL of 2× MHB II supplemented with 80 μg/mL resazurin and then incubated with continuous fluorescence reading for overnight time period as described earlier. The surviving microbial population (CFU/mL) in each well were calculated by first finding the time to reach a fluorescence of RFU=20000 and the correlation (4) for the specific microbial strain and buffer. % Survival represents the proportion of viable cells in peptide treated cells relative to cells treated with the respective buffer alone. Equation 5: […]
# (§4) Finally, the antimicrobial effectiveness of each peptide against the particular microbial strain in the specific buffer was determined by plotting % microbial survival as a function of the log of the concentration of the peptide and fitting the resulting data to a variable-slope sigmoidal regression model (equation 6). […]
# (§5) ATRA1-R3W2-HYD, NA-CATH and PMB were evaluated for their effectiveness in mammalian serum conditions against pathogenic bacteria of both normal and drug-resistant strains. […]
# [3] = system: multi-drug resistant (MDR) Acinetobacter baumannii (ATCC BAA-1795); experiment: Antimicrobial efficacy against ESKAPE pathogens; details: mammalian serum
# Method: as §2
# as §1, with “shaking. As the microbe grows it reduces non-fluorescent resazurin to fluorescent resorufin and the fluorescent intensity of each well were measured (excitation=570 nm, emission=590 nm) each 5 min for 15 hours. The time (t, min) to reach a certain fluorescence (RFU=20000 with respect to the starting fluorescence) was correlated with the initial bacterial concentration (in CFU/mL) in the particular well to obtain a calibration plot of the form: Log([Bacteria],CFU/mL)=b+m*t Equation 4:” for “shaking.”
# as §3, §4, §5
# [4] = system: Pseudomonas aeruginosa; experiment: Antimicrobial efficacy against ESKAPE pathogens
# Method: as §2
# as §1, with “shaking. As the microbe grows it reduces non-fluorescent resazurin to fluorescent resorufin and the fluorescent intensity of each well were measured (excitation=570 nm, emission=590 nm) each 5 min for 15 hours. The time (t, min) to reach a certain fluorescence (RFU=20000 with respect to the starting fluorescence) was correlated with the initial bacterial concentration (in CFU/mL) in the particular well to obtain a calibration plot of the form: Log([Bacteria],CFU/mL)=b+m*t Equation 4:” for “shaking.”
# as §3, §4, §5
sequence,measurement,setting,value
"RRWKRFFKRWKGGVIGVTFPF (SEQ ID NO: 50) [ATRA1-R3W2-HYD, ATRA1-R3W2 with hydrophobic tail of NA-CATH joined by -GG-]","antimicrobial effectiveness, in words",[1],"highly effective, though in lower degree than PMB"
same,"antimicrobial effectiveness, in words",[2],effective in mammalian serum
same,"antimicrobial effectiveness, in words",[3],effective in mammalian serum
same,"antimicrobial effectiveness, in words",[4]; DPBS,good bactericidal properties
same,"antimicrobial effectiveness, in words",[4]; mammalian serum,did not demonstrate antimicrobial effectiveness
